Legend:
Ctenocephalides felis [1] = test: In vitro contact test with fleas; conditions: read-out: insecticidal activity; for pest or weed control at 0.2 µg/cm2, 0.2 µg/cm2: dose 0.2 μg/cm^2, dead or moribund fleas after 48 h; for pest or weed control at 1 µg/cm2, 1 µg/cm2: dose 1 μg/cm^2, dead or moribund fleas after 48 h
In short: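 Adult male and female cat fleas (5-10 per tube) placed in glass tubes coated with compound from acetone solution (900 ppm gives 5 μg/cm^2), kept at room temperature and ambient humidity. After 48 h, motionless or uncoordinated fleas scored dead or moribund; activity expressed as % dead or moribund.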

Dermacentor variabilis = test: In vitro contact test with adult hard ticks (Dermacentor variabilis); conditions: read-out: acaricidal activity; for pest or weed control at 0.2 µg/cm2, 0.2 µg/cm2: dose 0.2 μg/cm^2, 48 h; for pest or weed control at 1 µg/cm2, 1 µg/cm2: dose 1 μg/cm^2, 48 h
In short: (§1)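 Adult R. sanguineus, I. ricinus, D. variabilis or A. americanum nymphs exposed in glass vials coated with compound from acetone (900 ppm gives 5 μg/cm^2). Held 48 h at room temperature (R. sanguineus) or 21° C., 85% rel. hum.; then heated at 45-50° C. ≤5 min, motionless or uncoordinated ticks scored dead/moribund.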

Ixodes ricinus = test: In vitro contact test with adult hard ticks (Ixodes ricinus); conditions: read-out: acaricidal activity; for pest or weed control at 0.2 µg/cm2, 0.2 µg/cm2: dose 0.2 μg/cm^2, 48 h; for pest or weed control at 1 µg/cm2, 1 µg/cm2: dose 1 μg/cm^2, 48 h; for pest or weed control at 5 µg/cm2, 5 µg/cm2: dose 5 μg/cm^2, 48 h
Description: In Vitro Contact Tests with Adult Hard Ticks
In vitro contact tests with ticks were conducted with adult males and females of Rhipicephalus sanguineus, Ixodes ricinus, or Dermacentor variabilis, or nymphs of Amblyomma americanum.
For the coating of the test vials, the test substance was dissolved and diluted in acetone p.a. to the desired concentration. The solution was then homogeneously applied to the inner wall and base of a glass vial by turning and rocking on an orbital shaker until complete evaporation of the solvent. For example, with a 900 ppm solution of test substance, an area-based dose of 5 μg/cm^2 was achieved.
After the solvent was completely evaporated, 5-10 adult ticks were put in each coated test vial, which was then sealed with a perforated plastic lid and incubated in a horizontal position in the dark at room temperature and ambient humidity (Rhipicephalus sanguineus) or in a climate-controlled cabinet (Ixodes ricinus, Dermacentor variabilis, Amblyomma americanum [21° C., 85% rel. hum.]). Acaricidal activity against the respective tick species was determined after 48 h. For this, ticks were collected to the base of the test vial by gentle knocking, and test vials were then incubated on a hotplate at 45-50° C. for no longer than 5 min. Ticks which remained motionless on the base of the test vial or moved uncoordinated without deliberately climbing up to avoid the heat were considered dead or moribund, respectively.
A substance was judged to have good acaricidal activity against the respective tick species when at least 80% of ticks were found dead or moribund at a dose of the substance of g/cm^2. An acaricidal activity of 100% means all ticks were dead or moribund. An acaricidal activity of 0% means none of the ticks was found dead or moribund.

Rhipicephalus sanguineus = test: In vitro contact test with adult hard ticks (Rhipicephalus sanguineus); conditions: read-out: acaricidal activity; for pest or weed control at 0.2 µg/cm2, 0.2 µg/cm2: dose 0.2 μg/cm^2, 48 h; for pest or weed control at 1 µg/cm2, 1 µg/cm2: dose 1 μg/cm^2, 48 h
In short: as §1

[2] = system: Rhipicephalus (Boophilus) microplus; test: In vitro injection test with Rhipicephalus (Boophilus) microplus (BOOPMI Inj); conditions: 168 h, laid fertile eggs after 7 days, read-out: acaricidal activity; for pest or weed control at 32 ng: dose 0.032 μg/animal injected; for pest or weed control at 0.00016 mg: dose 0.16 μg/animal injected; for pest or weed control at 0.0008 mg: dose 0.8 μg/animal injected
In short: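 Test substance in DMSO; 1 μl injected into abdomen of each of 5 engorged adult female ticks, then held at 28° C., 85% rel. hum. Activity scored after 7 days from laying of fertile eggs: 100% = no eggs or all infertile, 0% = all eggs fertile.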

Ctenocephalides felis [3] = test: Ctenocephalides felis in-vitro feeding test with fleas (CTECFE oral); conditions: 48 hours, read-out: insecticidal feeding activity; for pest or weed control at 0.8 ppm: dose 0.8 ppm in citrated cattle blood; for pest or weed control at 4 ppm: dose 4 ppm in citrated cattle blood; for pest or weed control at 0.032 ppm: dose 0.032 ppm in citrated cattle blood; for pest or weed control at 0.16 ppm: dose 0.16 ppm in citrated cattle blood
In short: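 About 20 unfed adult cat fleas fed through parafilm on citrated cattle blood containing test substance (DMSO solution diluted in blood), held at about 37° C. Kill rate scored after 48 hours, 100% meaning all fleas dead.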

Spodoptera litura = test: Insecticidal testing against common cutworm; type: in vivo; conditions: foliar, 144 h, concentration 100 ppm, cabbage leaf dip, second-stage larvae, after 6 days, read-out: pesticidal rate
Source text: Insecticidal Testing Against Common Cutworm (Spodoptera litura)

Plutella xylostella = test: Insecticidal testing against diamondback moth; type: in vivo; conditions: foliar, 144 h, concentration 100 ppm, cabbage leaf dip, third-stage larvae, after 6 days, read-out: pesticidal rate
Source text: Insecticidal Testing Against Diamondback Moth (Plutella xylostella)

Laodelphax striatellus = test: Insecticidal testing against small brown planthopper; type: in vivo; conditions: 144 h, concentration 100 ppm, sprayed rice seedlings, after 6 days, read-out: pesticidal rate
In short: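 Acetone solution of compound at a set concentration sprayed onto rice seedlings, air-dried, then exposed to 10 planthoppers (one group). Held at 25° C; survival rate recorded after 6 days.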

Amblyomma americanum = test: In vitro contact test with hard ticks (Amblyomma americanum nymphs); conditions: dose 1 μg/cm^2, 48 h, read-out: acaricidal activity
In short: as §1

Compound | pest or weed control at 0.2 µg/cm2, 0.2 µg/cm2 (Ctenocephalides felis [1]) [%] | pest or weed control at 1 µg/cm2, 1 µg/cm2 (Ctenocephalides felis [1]) [%] | pest or weed control at 0.2 µg/cm2, 0.2 µg/cm2 (Dermacentor variabilis) [%] | pest or weed control at 1 µg/cm2, 1 µg/cm2 (Dermacentor variabilis) [%] | pest or weed control at 1 µg/cm2, 1 µg/cm2 (Ixodes ricinus) [%] | pest or weed control at 5 µg/cm2, 5 µg/cm2 (Ixodes ricinus) [%] | pest or weed control at 0.2 µg/cm2, 0.2 µg/cm2 (Rhipicephalus sanguineus) [%] | pest or weed control at 1 µg/cm2, 1 µg/cm2 (Rhipicephalus sanguineus) [%] | pest or weed control at 32 ng [2] [%] | pest or weed control at 0.00016 mg [2] [%] | pest or weed control at 0.0008 mg [2] [%] | pest or weed control at 0.8 ppm (Ctenocephalides felis [3]) [%] | pest or weed control at 4 ppm (Ctenocephalides felis [3]) [%] | pest or weed control at 100 ppm (Spodoptera litura) [%] | pest or weed control at 100 ppm (Plutella xylostella) [%] | pest or weed control at 100 ppm (Laodelphax striatellus) [%] | pest or weed control at 0.16 ppm (Ctenocephalides felis [3]) [%] | pest or weed control at 1 µg/cm2, 1 µg/cm2 (Amblyomma americanum) [%] | further results
CN(C(=O)c1ccc(F)cc1)c1cccc(C(=O)Nc2c(Br)cc(C(F)(C(F)(F)F)C(F)(F)F)cc2OC(F)(F)F)c1F [Compound 72] | 95 | 95 | 90 | 90 | 90 | 90 | 90 | 90 | 100 | 100 | 100 | 95 | 95 | ≥ 70 | ≥ 70 | ≥ 70 | – | – | pest or weed control at 0.2 µg/cm2, 0.2 µg/cm2 (Ixodes ricinus): 90%; pest or weed control at 0.04 µg/cm2, 0.04 µg/cm2 (Rhipicephalus sanguineus; dose 0.04 μg/cm^2, 48 h): 90%
O=C(Nc1cccc(C(=O)Nc2c(I)cc(C(F)(C(F)(F)F)C(F)(F)F)cc2C(F)(F)F)c1F)c1ccc(F)cc1 [Compound 63] | – | 95 | 90 | 90 | 90 | 90 | 90 | 90 | – | 100 | 100 | 95 | 95 | ≥ 70 | ≥ 70 | ≥ 70 | 95 | – | pest or weed control at 0.2 µg/cm2, 0.2 µg/cm2 (Ixodes ricinus): 90%; pest or weed control at 0.032 ppm (Ctenocephalides felis [3]): 95%
COc1ccc(C(=O)N(C)c2cccc(C(=O)Nc3c(I)cc(C(F)(C(F)(F)F)C(F)(F)F)cc3C(F)(F)F)c2F)cc1 [Compound 62] | 95 | 95 | – | 90 | – | – | – | 90 | – | 100 | 100 | 95 | 95 | ≥ 70 | ≥ 70 | ≥ 70 | 95 | 90 | –
O=C(Nc1cccc(C(=O)Nc2c(Br)cc(C(F)(C(F)(F)F)C(F)(F)F)cc2OC(F)(F)F)c1F)c1ccc(C(F)(F)F)nc1 [Compound 99, N-(2-fluoro-3-((2-bromo-4-(perfluoropropan-2-yl)-6-(trifluoromethoxy)phenyl)carbamoyl)phenyl)-6-(trifluoromethyl)nicotinamide] | – | – | 90 | 90 | 90 | – | 90 | 90 | – | 100 | 100 | 95 | 95 | ≥ 70 | ≥ 70 | ≥ 70 | 95 | – | –
CN(C(=O)c1ccc(C#N)nc1)c1cccc(C(=O)Nc2c(I)cc(C(F)(C(F)(F)F)C(F)(F)F)cc2C(F)(F)F)c1F [Compound 57] | 95 | 95 | 90 | 90 | – | – | 90 | 90 | 100 | 100 | 100 | 95 | 95 | ≥ 70 | ≥ 70 | ≥ 70 | 95 | 90 | pest or weed control at 0.04 µg/cm2, 0.04 µg/cm2 (Ctenocephalides felis [1]; dose 0.04 μg/cm^2, dead or moribund fleas after 48 h): 95%
CN(C(=O)c1ccc(F)c(F)c1)c1cccc(C(=O)Nc2c(I)cc(C(F)(C(F)(F)F)C(F)(F)C(F)(F)F)cc2C(F)(F)F)c1F (stereo not drawn) [Compound 77] | 95 | 95 | 90 | 90 | – | – | – | 90 | 100 | 100 | 100 | 95 | 95 | ≥ 70 | ≥ 70 | ≥ 70 | 95 | 90 | –
O=C(Nc1cccc(C(=O)Nc2c(I)cc(C(F)(C(F)(F)F)C(F)(F)F)cc2C(F)(F)F)c1F)c1ccc(Cl)c(Cl)c1 [Compound 80] | – | – | 90 | 90 | – | 90 | – | 90 | – | – | 100 | 95 | 95 | ≥ 70 | ≥ 70 | ≥ 70 | 95 | – | pest or weed control at 0.032 ppm (Ctenocephalides felis [3]): 95%

Reference: patent US11696913B2, “Prolonged ectoparasite-controlling agent for animal” (MITSUI CHEMICALS AGRO, INC., priority 2017, dated 2023)
